In patent publication US5436229A, “Bisulfite adducts of arginine aldehydes” (Eli Lilly and Company, priority 1994, dated 1995):
Non-standard residues stand in square brackets, D forms with d. Residues, ends and D or L forms follow the SMILES beside them. dNMeCha = CN[C@H](CC1CCCCC1)C(=O)O

How the values were obtained:
human thrombin = human thrombin (Homo sapiens, UniProt P00734); assay: Thrombin amidase inhibition (Kass), chromogenic substrate; format: biochemical
Summary of the method: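 Purified human thrombin (8 NIH units/ml solution) mixed with compound in 50% aqueous methanol and 0.03M Tris, 0.15M NaCl, pH 7.4; chromogenic substrate (0.25 mg/ml solution) added, p-nitroaniline release followed at 405 nm. Free thrombin read from a standard curve; Kass (L/mol) is the mean over a range of compound concentrations.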

Bovine trypsin = biological target: T1, Bovine trypsin (Bos taurus, UniProt P00760); assay: Serine protease inhibition (Kass), trypsin; format: biochemical
T1 construct: Bovine trypsin is purchased from Worthington Biochemicals; purchased Worthington Biochemicals, Freehold, N.J
T1 sequence (P00760 24-246): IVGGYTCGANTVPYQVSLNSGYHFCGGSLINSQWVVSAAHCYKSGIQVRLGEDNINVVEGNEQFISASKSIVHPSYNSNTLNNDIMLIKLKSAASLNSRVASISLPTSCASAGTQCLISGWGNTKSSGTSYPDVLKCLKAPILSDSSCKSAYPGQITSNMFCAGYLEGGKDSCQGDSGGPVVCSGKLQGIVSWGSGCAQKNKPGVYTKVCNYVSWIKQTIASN
Summary of the method: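 Chromogenic p-nitroanilide substrate assays run as for human thrombin; trypsin with N-Benzoyl-Phe-Val-Arg-p-nitroanilide, human factor Xa with N-Benzoyl-Ile-Glu-Gly-Arg-p-nitroanilide. Values are association constants (Kass).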

Human plasmin = biological target: T2, Human plasmin (Homo sapiens, UniProt P00747); assay: Serine protease inhibition (Kass), plasmin; format: biochemical
T2 construct: Human plasmin is purchased from Boehringer Mannheim; purchased Boehringer Mannheim, Indianapolis, Ind
Summary of the method: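 Chromogenic enzyme assays run as for human thrombin, giving association constants (Kass). Human plasmin used with H-D-Val-Leu-Lys-p-nitroanilide; t-PA (single-chain nt-PA or modified mt-PA6) with H-D-Ile-Pro-Arg-p-nitroanilide.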

[1] = biological target: T3, tissue plasminogen activator (t-PA) (Homo sapiens, UniProt P00750); assay: Serine protease inhibition (Kass), t-PA; format: biochemical
T3 construct: purchased American Diagnostica, Greenwich, Conn

[2] = Index of Bioavailability (plasma TT AUC, oral vs i.v.); format: in vivo; conditions: rats, oral vs i.v. bolus
From the text: Assays are done in duplicate and averaged.
Each sample population represents alternating sequential time points.

T2 sequence (P00747 581-810 limits assumed): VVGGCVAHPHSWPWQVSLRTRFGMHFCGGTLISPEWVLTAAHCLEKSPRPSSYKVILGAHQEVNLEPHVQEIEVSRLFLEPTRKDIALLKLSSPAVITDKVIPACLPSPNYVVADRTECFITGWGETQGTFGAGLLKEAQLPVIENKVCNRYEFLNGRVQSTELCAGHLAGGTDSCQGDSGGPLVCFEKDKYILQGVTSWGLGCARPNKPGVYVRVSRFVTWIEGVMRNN
T2 sequence (P00747 97-580 partner limits assumed): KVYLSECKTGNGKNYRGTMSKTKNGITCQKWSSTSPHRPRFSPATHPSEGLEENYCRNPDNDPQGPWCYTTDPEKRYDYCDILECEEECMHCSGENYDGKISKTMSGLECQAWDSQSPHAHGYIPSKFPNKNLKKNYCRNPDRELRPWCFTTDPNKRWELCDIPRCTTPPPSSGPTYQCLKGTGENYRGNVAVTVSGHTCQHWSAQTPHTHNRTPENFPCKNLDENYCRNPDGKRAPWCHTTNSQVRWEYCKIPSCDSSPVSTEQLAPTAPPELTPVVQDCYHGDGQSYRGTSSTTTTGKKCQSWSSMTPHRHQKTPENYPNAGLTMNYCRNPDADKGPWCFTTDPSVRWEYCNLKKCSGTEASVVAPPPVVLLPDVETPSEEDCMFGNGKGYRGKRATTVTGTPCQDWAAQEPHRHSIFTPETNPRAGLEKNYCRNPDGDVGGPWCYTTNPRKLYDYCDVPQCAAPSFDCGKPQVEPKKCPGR
T3 sequence (P00750 36-562): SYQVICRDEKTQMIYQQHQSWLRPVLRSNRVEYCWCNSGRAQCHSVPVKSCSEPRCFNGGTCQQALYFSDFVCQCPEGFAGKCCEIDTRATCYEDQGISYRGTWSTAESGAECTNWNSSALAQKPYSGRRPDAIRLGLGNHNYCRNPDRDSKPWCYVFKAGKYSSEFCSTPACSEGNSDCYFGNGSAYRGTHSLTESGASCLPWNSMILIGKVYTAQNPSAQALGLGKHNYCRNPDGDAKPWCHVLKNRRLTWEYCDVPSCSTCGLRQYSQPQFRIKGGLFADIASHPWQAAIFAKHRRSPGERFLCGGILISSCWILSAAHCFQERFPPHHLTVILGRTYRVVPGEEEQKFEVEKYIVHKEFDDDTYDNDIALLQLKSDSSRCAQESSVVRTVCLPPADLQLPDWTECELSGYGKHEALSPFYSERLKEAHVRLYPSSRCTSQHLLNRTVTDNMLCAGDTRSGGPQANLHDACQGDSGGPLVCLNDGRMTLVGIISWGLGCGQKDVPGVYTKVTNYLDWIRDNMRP

Compound	Kass Human Thrombin (human thrombin) [L/mol × 10^6]	Kass Trypsin (Bovine trypsin) [L/mol × 10^6]	Kass Plasmin (Human plasmin) [L/mol × 10^6]	Kass t-PA [1] [L/mol × 10^6]	Percent Relative Activity (Index of Bioavailability) [2] [%]
N=C(N)NCCCC(C=O)NC(=O)C1CCCN1C(=O)C1CC2CCCCC2CN1.O=S(=O)(O)O [80 (Step F), D-3-(cis)Piq-Pro-Arg-H.H2 SO4]	56	183	1.6	0.5	46
CN[C@H](CC1CCCCC1)C(=O)N1CCC[C@H]1C(=O)N[C@H](C=O)CCCNC(=N)N.Cl [Example 75, N-methyl-D-cyclohexylalanyl-L-Prolinyl-L-Arginine Aldehyde Hydrochloride] (H-[dNMeCha]-Pro-Arg-aldehyde)	590	160	7.7	0.37	13
